ChEMBL document CHEMBL6182931, “Chemical Evolution of Aplithianine Class of Serine/Threonine Kinase Inhibitors” (J Med Chem, 2025)
Activity calls are given as the source filed them. No cut-off for these calls is given here.

Legend:
[1] = biological target: Tyrosine-protein kinase JAK2 (Homo sapiens) (UniProt O60674); assay: Inhibition of human JAK2 at 50 nM in presence of ATP by radiometric Hotspot kinase assay relative to control
[2] = Apparent permeability across apical to basolateral side in human Caco-2 cells at 10 uM; assay type: ADME, cell-based; settings: caco-2, 10 µM
[3] = tested on: MDA-MB-468; assay: Antiproliferative activity against human MDA-MB-468 cells assessed as growth inhibition; assay type: functional, cell-based
[4] = Inhibition of DNAJB1-PKAcalpha (unknown origin) overexpressed in mouse NIH/3T3 cells assessed as inhibition of CREB phosphorylation at Ser133 residue preincubated for 30 mins followed by forskolin addition and measured after 30 mins by fluorescence based multilabel reader analysis; assay type: cell-based; settings: NIH3T3
[5] = biological target: T1, Dual specificity tyrosine-phosphorylation-regulated kinase 3 (Homo sapiens) (UniProt O43781); assay: Inhibition of human DYRK3 at 50 nM in presence of ATP by radiometric Hotspot kinase assay relative to control
T1 sequence (whole entry): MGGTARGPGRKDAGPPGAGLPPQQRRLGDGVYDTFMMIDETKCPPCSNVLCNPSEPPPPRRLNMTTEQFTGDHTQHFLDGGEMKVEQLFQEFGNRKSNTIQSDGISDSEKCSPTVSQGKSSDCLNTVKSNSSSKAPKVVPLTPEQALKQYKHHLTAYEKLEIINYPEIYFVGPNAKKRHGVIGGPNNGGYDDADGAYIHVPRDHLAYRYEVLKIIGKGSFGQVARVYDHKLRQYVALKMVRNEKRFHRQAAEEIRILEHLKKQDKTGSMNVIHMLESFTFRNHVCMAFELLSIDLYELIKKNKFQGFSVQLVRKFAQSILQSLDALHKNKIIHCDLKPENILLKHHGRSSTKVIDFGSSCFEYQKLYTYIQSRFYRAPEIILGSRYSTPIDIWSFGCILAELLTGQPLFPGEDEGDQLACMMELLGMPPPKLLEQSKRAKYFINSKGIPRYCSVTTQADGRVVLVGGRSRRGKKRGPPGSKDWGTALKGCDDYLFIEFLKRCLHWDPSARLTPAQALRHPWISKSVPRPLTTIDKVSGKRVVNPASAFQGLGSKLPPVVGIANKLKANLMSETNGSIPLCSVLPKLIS

[6] = tested on: SR; assay: Antiproliferative activity against human SR cells assessed as growth inhibition; assay type: functional
[7] = biological target: Tyrosine-protein kinase JAK1 (Homo sapiens) (UniProt P23458); assay: Inhibition of human JAK1 at 50 nM in presence of ATP by radiometric Hotspot kinase assay relative to control
[8] = Aqueous solubility of compound in PBS at pH 7.4 by shake-flask method; assay type: physicochemical
[9] = biological target: NT-3 growth factor receptor (Homo sapiens) (UniProt Q16288); assay: Inhibition of human TRKC at 50 nM in presence of ATP by radiometric Hotspot kinase assay relative to control
[10] = tested on: LOX IMVI; assay: Antiproliferative activity against human LOX IMVI cells assessed as growth inhibition; assay type: functional
[11] = biological target: RAC-alpha serine/threonine-protein kinase (Homo sapiens) (UniProt P31749); assay: Inhibition of human Akt1 at 50 nM in presence of ATP by radiometric Hotspot kinase assay
[12] = biological target: Tyrosine-protein kinase JAK3 (Homo sapiens) (UniProt P52333); assay: Inhibition of human JAK3 at 50 nM in presence of ATP by radiometric Hotspot kinase assay relative to control
[13] = tested on: NCI/ADR-RES; assay: Antiproliferative activity against human NCI/ADR-RES cells assessed as growth inhibition; assay type: functional, cell-based
[14] = biological target: Albumin (Homo sapiens, UniProt P02768); assay: Binding affinity to human serum albumin assessed as protein binding at 10 uM by equilibrium dialysis technique relative to control; assay type: ADME; settings: isolated protein
[15] = biological target: cAMP-dependent protein kinase catalytic subunit alpha (Homo sapiens) (UniProt P17612); settings: dose 50.0 nM
Description: Inhibition of human PKAalpha at 50 nM in presence of ATP by radiometric Hotspot kinase assay relative to control

[16] = biological target: hERG (KCNH2) (Homo sapiens, UniProt Q12809); assay: Inhibition of human ERG expressed in CHO cells at 10 uM by electrophysiological analysis relative to control; assay type: toxicity, cell-based; settings: CHO cells that express human ERG
[17] = biological target: T2, Dual specificity tyrosine-phosphorylation-regulated kinase 2 (Homo sapiens) (UniProt Q92630); assay: Inhibition of human DYRK2 at 50 nM in presence of ATP by radiometric Hotspot kinase assay relative to control
T2 sequence (whole entry): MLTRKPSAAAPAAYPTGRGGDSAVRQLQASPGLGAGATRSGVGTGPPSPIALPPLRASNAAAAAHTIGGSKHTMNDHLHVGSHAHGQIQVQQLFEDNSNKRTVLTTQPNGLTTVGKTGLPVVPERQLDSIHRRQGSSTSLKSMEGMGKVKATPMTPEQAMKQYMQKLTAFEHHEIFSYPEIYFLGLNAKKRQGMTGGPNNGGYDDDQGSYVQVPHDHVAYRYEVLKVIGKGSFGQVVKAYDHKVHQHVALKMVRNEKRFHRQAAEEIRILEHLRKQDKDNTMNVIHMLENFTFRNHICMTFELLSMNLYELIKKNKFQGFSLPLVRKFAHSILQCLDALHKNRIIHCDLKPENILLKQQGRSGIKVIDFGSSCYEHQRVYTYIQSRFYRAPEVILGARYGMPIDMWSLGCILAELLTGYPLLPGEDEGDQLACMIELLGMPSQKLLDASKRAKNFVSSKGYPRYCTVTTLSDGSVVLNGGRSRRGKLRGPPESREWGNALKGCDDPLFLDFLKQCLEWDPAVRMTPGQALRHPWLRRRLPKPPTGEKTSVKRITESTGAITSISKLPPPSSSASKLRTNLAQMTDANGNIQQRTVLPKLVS

[18] = Inhibition of DNAJB1-PKAcalpha (unknown origin) using biotinylated-peptide substrate CREB incubated for 45 mins in presence of ATP and cAMP by ELISA; design: species or system Homo sapiens
[19] = tested on: MOLT-4; assay: Antiproliferative activity against human MOLT-4 cells assessed as growth inhibition; assay type: functional
[20] = Metabolic stability in human liver microsomes assessed as half-life at 0.1 uM measured after 60 mins; assay type: ADME, Microsome; settings: 1 h
[21] = Efflux ratio of apparent permeability across basolateral to apical side over apical to basolateral side in human Caco-2 cells at 10 uM; assay type: ADME, cell-based
[22] = biological target: RAC-beta serine/threonine-protein kinase (Homo sapiens) (UniProt P31751); assay: Inhibition of human Akt2 at 50 nM in presence of ATP by radiometric Hotspot kinase assay
[23] = biological target: cAMP-dependent protein kinase catalytic subunit beta (Homo sapiens) (UniProt P22694); assay: Inhibition of human PKAbeta at 50 nM in presence of ATP by radiometric Hotspot kinase assay
[24] = tested on: OVCAR-4; assay: Antiproliferative activity against human OVCAR-4 cells assessed as growth inhibition; assay type: functional, cell-based
[25] = Drug metabolism in human liver microsomes at 0.1 uM measured after 60 mins; assay type: ADME, Microsome; settings: 1 h
[26] = Apparent permeability across basolateral to apical side in human Caco-2 cells at 10 uM; assay type: ADME, cell-based; settings: caco-2, 10 µM
[27] = biological target: RAC-gamma serine/threonine-protein kinase (Homo sapiens) (UniProt Q9Y243); assay: Inhibition of human Akt3 at 50 nM in presence of ATP by radiometric Hotspot kinase assay
[28] = Metabolic stability in human liver microsomes assessed as intrinsic clearance at 0.1 uM measured after 60 mins; assay type: ADME, Microsome; settings: 1 h
[29] = biological target: T3, cGMP-dependent protein kinase 1 (Homo sapiens) (UniProt Q13976); settings: dose 50.0 nM
T3 sequence (whole entry): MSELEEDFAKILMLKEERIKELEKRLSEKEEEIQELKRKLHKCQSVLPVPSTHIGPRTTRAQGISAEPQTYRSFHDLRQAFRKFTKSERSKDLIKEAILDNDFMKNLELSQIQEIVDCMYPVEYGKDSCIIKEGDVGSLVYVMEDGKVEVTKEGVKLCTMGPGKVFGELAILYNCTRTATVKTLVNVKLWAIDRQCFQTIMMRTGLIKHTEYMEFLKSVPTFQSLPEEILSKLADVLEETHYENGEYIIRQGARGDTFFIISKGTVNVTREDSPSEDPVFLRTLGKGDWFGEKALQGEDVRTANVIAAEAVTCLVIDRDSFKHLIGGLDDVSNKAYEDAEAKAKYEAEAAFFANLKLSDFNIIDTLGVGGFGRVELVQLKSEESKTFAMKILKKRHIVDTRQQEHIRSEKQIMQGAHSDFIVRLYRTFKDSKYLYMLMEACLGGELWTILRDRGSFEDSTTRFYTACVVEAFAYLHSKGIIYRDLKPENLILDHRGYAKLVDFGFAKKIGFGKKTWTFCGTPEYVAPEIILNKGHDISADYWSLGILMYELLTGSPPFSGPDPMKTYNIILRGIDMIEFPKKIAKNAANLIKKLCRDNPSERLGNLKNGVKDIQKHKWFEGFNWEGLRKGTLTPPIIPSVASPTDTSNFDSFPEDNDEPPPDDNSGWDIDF
Description: Inhibition of human PKG1alpha at 50 nM in presence of ATP by radiometric Hotspot kinase assay

[30] = biological target: Dual specificity tyrosine-phosphorylation-regulated kinase 1A (Homo sapiens) (UniProt Q13627); assay: Inhibition of human DYRK1A at 50 nM in presence of ATP by radiometric Hotspot kinase assay relative to control
[31] = biological target: Dual specificity protein kinase CLK4 (Homo sapiens) (UniProt Q9HAZ1); assay: Inhibition of human CLK4 at 50 nM in presence of ATP by radiometric Hotspot kinase assay relative to control
[32] = biological target: Dual specificity tyrosine-phosphorylation-regulated kinase 1B (Homo sapiens) (UniProt Q9Y463); assay: Inhibition of human DYRK1B at 50 nM in presence of ATP by radiometric Hotspot kinase assay relative to control
[33] = biological target: Receptor-type tyrosine-protein kinase FLT3 (Homo sapiens) (UniProt P36888); assay: Inhibition of human FLT3 at 50 nM in presence of ATP by radiometric Hotspot kinase assay relative to control
[34] = organism: Homo sapiens; assay: Induction of thermal stabilization of His-tagged DNAJB1-PKAcalpha (unknown origin) incubated for 15 min by differential scanning fluorometric analysis
[35] = biological target: Dual specificity protein kinase CLK1 (Homo sapiens) (UniProt P49759); assay: Inhibition of human CLK1 at 50 nM in presence of ATP by radiometric Hotspot kinase assay relative to control
[36] = biological target: Dual specificity protein kinase CLK2 (Homo sapiens) (UniProt P49760); assay: Inhibition of human CLK2 at 50 nM in presence of ATP by radiometric Hotspot kinase assay relative to control
Dual specificity protein kinase CLK2 (Homo sapiens), sequence (P49760 whole entry, looked up): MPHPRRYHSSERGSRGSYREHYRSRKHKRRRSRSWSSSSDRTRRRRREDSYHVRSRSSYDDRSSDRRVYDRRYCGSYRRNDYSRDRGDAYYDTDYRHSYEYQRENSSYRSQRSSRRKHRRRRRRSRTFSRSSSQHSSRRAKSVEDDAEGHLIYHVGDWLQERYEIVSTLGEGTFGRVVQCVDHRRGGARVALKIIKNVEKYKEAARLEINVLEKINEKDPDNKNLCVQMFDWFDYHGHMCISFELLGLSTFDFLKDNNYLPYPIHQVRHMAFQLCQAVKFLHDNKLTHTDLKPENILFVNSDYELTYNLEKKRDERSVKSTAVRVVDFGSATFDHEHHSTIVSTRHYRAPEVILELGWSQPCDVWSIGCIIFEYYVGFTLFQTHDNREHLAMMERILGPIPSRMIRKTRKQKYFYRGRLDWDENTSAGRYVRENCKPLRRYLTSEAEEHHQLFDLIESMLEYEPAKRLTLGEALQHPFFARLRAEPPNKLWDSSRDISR

RAC-alpha serine/threonine-protein kinase (Homo sapiens), sequence (P31749 whole entry): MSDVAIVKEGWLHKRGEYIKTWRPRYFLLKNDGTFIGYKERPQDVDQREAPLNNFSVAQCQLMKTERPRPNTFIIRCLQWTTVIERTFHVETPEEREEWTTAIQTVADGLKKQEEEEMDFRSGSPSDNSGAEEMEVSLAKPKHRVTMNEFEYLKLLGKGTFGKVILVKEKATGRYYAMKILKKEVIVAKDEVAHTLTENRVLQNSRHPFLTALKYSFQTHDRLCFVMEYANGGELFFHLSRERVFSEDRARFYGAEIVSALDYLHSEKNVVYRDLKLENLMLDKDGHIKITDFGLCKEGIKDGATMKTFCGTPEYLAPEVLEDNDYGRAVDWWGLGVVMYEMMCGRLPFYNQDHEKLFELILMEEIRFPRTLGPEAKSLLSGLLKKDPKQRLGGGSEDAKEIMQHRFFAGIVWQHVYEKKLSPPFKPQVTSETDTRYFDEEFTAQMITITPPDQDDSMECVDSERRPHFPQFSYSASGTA
RAC-gamma serine/threonine-protein kinase (Homo sapiens), sequence (Q9Y243 whole entry): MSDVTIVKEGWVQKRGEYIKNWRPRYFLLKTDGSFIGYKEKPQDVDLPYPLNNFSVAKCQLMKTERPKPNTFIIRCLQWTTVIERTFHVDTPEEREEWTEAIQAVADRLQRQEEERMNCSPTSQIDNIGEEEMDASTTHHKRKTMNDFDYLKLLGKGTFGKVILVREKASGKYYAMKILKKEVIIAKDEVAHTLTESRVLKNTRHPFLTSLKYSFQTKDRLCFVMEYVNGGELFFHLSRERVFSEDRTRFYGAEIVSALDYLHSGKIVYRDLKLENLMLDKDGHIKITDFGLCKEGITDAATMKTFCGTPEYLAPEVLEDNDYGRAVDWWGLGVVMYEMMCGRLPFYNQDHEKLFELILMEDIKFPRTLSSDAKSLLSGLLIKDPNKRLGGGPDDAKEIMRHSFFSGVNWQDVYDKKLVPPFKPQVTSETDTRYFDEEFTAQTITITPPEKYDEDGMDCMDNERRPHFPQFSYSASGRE
NT-3 growth factor receptor (Homo sapiens), sequence (Q16288 32-839 limits assumed): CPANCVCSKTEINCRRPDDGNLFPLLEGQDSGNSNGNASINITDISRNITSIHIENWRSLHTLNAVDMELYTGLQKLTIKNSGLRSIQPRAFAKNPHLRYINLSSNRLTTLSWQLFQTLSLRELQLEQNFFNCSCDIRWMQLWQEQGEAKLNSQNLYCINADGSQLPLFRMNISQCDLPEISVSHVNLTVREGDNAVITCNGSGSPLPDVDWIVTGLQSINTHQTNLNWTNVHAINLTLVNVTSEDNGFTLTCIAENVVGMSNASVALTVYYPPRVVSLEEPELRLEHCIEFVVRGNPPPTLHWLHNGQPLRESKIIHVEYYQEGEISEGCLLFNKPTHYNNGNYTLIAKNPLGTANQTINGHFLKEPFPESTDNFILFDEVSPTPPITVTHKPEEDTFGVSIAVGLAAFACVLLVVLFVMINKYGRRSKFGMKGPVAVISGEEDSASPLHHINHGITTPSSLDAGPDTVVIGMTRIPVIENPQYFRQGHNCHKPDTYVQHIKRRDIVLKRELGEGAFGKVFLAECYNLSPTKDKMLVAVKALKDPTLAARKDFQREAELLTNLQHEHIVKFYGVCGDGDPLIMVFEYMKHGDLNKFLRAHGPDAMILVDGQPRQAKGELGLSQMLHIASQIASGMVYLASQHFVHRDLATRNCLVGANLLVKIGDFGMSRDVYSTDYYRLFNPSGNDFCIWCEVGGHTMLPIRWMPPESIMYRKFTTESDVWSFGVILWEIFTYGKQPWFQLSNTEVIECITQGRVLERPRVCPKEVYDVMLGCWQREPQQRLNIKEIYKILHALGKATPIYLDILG
hERG (KCNH2), sequence (Q12809 whole entry): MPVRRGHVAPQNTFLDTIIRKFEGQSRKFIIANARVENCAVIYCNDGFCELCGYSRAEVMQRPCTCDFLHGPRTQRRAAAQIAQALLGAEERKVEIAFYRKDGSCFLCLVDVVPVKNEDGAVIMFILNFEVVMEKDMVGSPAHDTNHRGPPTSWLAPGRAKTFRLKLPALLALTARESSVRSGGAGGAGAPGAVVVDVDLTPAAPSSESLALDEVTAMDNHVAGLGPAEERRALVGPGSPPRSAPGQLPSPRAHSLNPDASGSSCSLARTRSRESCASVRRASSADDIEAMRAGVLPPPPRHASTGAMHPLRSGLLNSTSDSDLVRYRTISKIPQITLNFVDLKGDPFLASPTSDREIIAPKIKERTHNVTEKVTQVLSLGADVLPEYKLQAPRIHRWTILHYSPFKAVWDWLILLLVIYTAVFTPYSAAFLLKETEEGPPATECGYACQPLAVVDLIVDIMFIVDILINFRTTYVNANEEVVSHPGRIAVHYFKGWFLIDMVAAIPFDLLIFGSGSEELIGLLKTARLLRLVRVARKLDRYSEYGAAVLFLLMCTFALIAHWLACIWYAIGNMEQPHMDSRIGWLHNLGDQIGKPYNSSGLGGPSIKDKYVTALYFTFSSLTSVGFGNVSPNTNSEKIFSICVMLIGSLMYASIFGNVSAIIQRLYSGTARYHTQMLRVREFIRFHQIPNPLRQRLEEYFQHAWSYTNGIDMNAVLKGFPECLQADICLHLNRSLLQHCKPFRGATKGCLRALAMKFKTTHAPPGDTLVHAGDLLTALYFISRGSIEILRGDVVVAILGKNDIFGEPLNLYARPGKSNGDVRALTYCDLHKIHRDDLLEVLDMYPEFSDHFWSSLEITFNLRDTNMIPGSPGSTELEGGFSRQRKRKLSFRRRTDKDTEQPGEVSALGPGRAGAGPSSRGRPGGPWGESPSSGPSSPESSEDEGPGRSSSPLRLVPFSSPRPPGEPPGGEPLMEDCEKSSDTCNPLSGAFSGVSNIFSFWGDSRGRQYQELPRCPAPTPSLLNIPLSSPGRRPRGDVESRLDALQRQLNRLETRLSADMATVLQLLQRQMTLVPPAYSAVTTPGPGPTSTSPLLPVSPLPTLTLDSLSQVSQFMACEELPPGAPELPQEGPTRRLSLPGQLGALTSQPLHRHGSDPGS
Albumin, sequence (P02768 whole entry): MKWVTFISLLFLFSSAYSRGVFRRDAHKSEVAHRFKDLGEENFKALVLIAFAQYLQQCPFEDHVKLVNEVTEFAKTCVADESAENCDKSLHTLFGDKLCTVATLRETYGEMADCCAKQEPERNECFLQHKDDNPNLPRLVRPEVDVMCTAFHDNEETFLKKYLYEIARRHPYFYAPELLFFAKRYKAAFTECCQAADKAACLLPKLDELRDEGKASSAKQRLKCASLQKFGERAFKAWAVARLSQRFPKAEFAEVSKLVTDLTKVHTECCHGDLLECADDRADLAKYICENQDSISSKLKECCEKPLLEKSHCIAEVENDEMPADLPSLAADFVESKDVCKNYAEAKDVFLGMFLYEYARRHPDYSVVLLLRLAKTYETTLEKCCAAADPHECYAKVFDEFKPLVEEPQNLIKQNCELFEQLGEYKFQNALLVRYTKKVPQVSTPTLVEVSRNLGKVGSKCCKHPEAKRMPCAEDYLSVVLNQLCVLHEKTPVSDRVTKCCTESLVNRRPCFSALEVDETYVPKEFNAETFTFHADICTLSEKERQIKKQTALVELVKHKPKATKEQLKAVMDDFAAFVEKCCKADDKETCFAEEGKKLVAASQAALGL
RAC-beta serine/threonine-protein kinase (Homo sapiens), sequence (P31751 whole entry): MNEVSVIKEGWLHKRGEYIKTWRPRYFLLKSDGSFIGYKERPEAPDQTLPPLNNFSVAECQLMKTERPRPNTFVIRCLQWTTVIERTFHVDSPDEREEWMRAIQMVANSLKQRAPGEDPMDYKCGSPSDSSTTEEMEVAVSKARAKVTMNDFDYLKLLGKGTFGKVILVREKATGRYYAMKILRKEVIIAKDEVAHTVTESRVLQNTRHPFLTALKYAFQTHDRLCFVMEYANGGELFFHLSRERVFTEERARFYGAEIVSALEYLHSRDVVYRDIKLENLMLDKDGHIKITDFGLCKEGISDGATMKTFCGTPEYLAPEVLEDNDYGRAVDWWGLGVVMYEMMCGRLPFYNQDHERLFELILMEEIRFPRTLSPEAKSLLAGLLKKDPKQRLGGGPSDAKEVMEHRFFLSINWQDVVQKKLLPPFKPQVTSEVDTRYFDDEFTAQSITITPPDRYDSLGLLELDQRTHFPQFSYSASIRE
Dual specificity protein kinase CLK1 (Homo sapiens), sequence (P49759 whole entry, looked up): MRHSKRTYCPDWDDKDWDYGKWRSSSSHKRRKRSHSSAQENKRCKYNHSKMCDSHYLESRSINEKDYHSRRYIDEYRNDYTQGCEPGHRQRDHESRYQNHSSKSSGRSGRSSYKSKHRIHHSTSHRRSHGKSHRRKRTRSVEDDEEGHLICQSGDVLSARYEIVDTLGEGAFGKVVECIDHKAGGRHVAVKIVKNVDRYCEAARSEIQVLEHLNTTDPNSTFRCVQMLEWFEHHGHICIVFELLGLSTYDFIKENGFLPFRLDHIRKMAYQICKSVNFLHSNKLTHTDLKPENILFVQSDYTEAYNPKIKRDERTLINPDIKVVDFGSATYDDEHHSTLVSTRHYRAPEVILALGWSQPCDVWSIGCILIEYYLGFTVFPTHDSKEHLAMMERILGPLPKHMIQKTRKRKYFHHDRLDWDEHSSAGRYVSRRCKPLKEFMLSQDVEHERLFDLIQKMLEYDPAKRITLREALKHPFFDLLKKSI

Row | Structure (SMILES) | Papp [2] | Activity [3] | IC50 [4] | Activity [6] | solubility thermodynamic [8] | inhibition [9] | GI50 [10] | inhibition [11] | Activity [13] | PB [14] | inhibition at 10 µM [16] | Activity [19] | t1/2 [20] | inhibition [22] | inhibition [23] | Activity [24] | Drug metabolism [25] | Papp [26] | inhibition [27] | CLH [28] | also measured
1 | O=C(N[C@@H](c1ccccc1)[C@H]1CCCN1)C1=CN(c2ncnc3[nH]ccc23)CCS1 | 0.3 10^-6 cm/s | Active | 660 nM | Active | > 200 µM | > 50% | 40 nM | Active | inactive | 84% | 33% | Active | > 1 h | Active | Active | inactive | metabolite_notdetected | 19.7 10^-6 cm/s | Active | < 115 µL/min/mg | inhibition [1]: > 50%; inhibition [5]: Active; inhibition [7]: > 50%; inhibition [12]: > 50%; inhibition [15]: Active; inhibition [17]: Active; IC50 [18]: 6 nM; efflux ratio at 10 µM [21]: 66
2 | Cc1c[nH]c2ncnc(N3C=C(C(=O)N4CCC[C@@H](N)C4)SCC3)c12 | 0.1 10^-6 cm/s | Active | 3400 nM | Active | > 200 µM | > 50% | > 1000 nM | Active | inactive | 84% | 28% | Active | > 1 h | Active | Active | inactive | metabolite_notdetected | 6.6 10^-6 cm/s | Active | < 115 µL/min/mg | inhibition [29]: Active; inhibition [30]: Active; inhibition [31]: Active; inhibition [32]: Active; inhibition [33]: > 50%; Activity [34]: Dose-dependent-effect; inhibition [35]: Active; inhibition [36]: Active
